This is an account of results in patent US20260085058A1, “DEGRADERS OF SON OF SEVENLESS HOMOLOG 1” (H. LEE MOFFITT CANCER CENTER AND RESEARCH INSTITUTE, INC., priority 2022, published 2026).

One experiment has as its target T1, SOS1 (Homo sapiens, UniProt Q07889).
T1 sequence (Q07889 1-1333): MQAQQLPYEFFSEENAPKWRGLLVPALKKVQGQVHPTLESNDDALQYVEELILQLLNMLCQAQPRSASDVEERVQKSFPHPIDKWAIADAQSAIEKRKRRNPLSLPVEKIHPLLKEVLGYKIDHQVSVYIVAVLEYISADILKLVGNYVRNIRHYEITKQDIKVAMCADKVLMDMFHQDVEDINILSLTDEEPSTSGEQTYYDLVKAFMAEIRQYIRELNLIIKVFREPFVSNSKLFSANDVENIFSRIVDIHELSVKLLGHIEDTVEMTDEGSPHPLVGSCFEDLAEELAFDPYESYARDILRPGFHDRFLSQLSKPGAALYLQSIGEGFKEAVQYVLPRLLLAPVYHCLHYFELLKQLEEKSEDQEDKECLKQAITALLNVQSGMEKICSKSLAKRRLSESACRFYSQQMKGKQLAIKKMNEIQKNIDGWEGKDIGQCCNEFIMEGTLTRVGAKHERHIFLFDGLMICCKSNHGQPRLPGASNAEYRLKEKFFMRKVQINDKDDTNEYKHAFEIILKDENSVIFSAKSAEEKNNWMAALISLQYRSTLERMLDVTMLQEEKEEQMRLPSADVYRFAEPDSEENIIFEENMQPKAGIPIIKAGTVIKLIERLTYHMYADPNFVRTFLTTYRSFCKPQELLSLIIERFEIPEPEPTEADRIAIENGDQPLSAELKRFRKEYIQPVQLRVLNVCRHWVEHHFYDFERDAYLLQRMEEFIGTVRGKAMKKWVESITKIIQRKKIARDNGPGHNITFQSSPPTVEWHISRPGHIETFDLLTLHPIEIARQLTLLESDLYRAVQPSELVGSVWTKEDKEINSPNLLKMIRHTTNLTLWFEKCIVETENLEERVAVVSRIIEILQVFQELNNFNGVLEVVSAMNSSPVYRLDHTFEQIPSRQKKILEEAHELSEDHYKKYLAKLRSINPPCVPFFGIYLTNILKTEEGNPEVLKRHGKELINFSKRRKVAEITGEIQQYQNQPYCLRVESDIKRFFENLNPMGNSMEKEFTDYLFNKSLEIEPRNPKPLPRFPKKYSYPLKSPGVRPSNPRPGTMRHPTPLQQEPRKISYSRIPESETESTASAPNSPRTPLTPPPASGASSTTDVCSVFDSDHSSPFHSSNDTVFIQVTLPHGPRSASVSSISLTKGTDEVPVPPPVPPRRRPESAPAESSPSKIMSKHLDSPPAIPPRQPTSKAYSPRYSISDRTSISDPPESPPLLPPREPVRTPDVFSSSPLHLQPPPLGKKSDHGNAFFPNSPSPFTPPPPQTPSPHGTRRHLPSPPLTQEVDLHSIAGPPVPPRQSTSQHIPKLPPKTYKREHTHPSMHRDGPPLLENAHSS
Put plainly: SOS1 degradation by immunoblot in colorectal cancer cell lines. Type of experiment: cell-based. On the set-up: endogenous in cells; host or cells: SW620, HCT116, C2BB, SW1417. As for the experimental part: SW620, HCT116, C2BB, and SW1417 were purchased from the American Type Culture Collection. […] They were incubated under a 5% (v/v) CO2 atmosphere at 37° C.
Cells were plated in a 100 mm dish for incubation overnight before harvest for immunoblot. For drug treatment, cell confluency was checked prior to proceeding with the treatment. […] Approximately 40 μg protein samples were loaded into each well and separated by SDS-PAGE gel. After protein transfer onto nitrocellulose membranes, 5% skim milk in TBST was used to block the membranes for 1 hour at room temperature prior to incubation with primary antibodies overnight at 4° C. At the completion, a horseradish peroxidase-conjugated secondary antibody was applied at room temperature for 1 hour. The bands were visualized using Western Lightning Plus-ECL (PerkinElmer).
(In western blotting, separated proteins are transferred to a membrane and probed.)

A further experiment has as its system Annexin V. Briefly: Annexin V expression by IHC in CRC patient-derived organoid models. Type of experiment: cell-based, human. Conditions: MCC19990-010 and MCC19990-013 PDOs, 1 μM, 24 hours, vs DMSO. The method, then:
To one or two confluent wells of organoids was added 1:5 diluted 500 μL of 5 units/mL dispase in HBSS (StemCell: 07913) and incubated at 37° C. in 5% CO2 atmosphere. Organoids were harvested and transferred to a 1.5 mL Eppendorf tube. The pellet was collected after centrifugation at 1500 rpm for 6 min, and washed with 1×PBS. The pellet was resuspended in 1 mL of 4% PFA and incubated at 4° C. overnight. The pellet was resuspended in 100 μL of 37° C. warmed histogel, centrifuged at 1000 rpm for 30 seconds to settle the organoids. The gel was allowed to polymerize at 4° C. for 10 minutes and then the plug was transferred to a 5 mL tube containing 2 mL 70% ethanol, and sent to the histology lab. Organoids were paraffin-embedded and subjected to serial sections for hematoxylin and eosin staining and immunohistochemistry following a common procedure at the histology lab. The slides/sections were cut at 4 micron thickness using a Leica RM2245 microtome. Charged slides were used.
Immunohistochemical staining of SOS1 on organoids: Slides were stained using a Ventana Discovery Ultra automated system (Ventana Medical Systems, Tucson, AZ) as per manufacturer's protocol with proprietary reagents. Briefly, slides were deparaffinized on the automated system with Discovery Wash Solution (Ventana). Heat-induced antigen retrieval method was used in Cell Conditioning 1 Mild (Ventana). […]

Regarding `COc1cc2c(N[C@H](C)c3cc(N)cc(C(F)(F)F)c3)nc(C)nc2cc1OCC(=O)Nc1cccc2c1CN(C1CCC(=O)NC1=O)C2=O` (stereo partly drawn) [P7, 2-((4-(((R)-1-(3-amino-S-(trifluoromethyl)phenyl)ethyl)amino)-6-methoxy-2-methylquinazolin-7-yl)oxy)-N-(2-(2,6-dioxopiperidin-3-yl)-1-oxoisoindolin-4-yl)acetamide], the “SOS1 degradation in other CRC cell lines” value on SOS1 (HCT116, C2BB and SW1417 cells, different concentrations, 24 hours) is on record as “concentration-dependent”. Also, the “SOS1 degradation after cycloheximide pretreatment” value on SOS1 (SW620 cells pre-treated with cycloheximide 100 μg/mL for 1 hour, then 1 μM P7, starting at 3 hours and sustained) is “more than 75%”. Moreover, the “SOS1 degradation by P7 after pretreatment with competitors/pathway inhibitors” value at SOS1 (SW620 cells pretreated 1 hour with BI3406 10 μM, lenalidomide 10 μM, MLN4924 0.5 μM or MG132, then P7 1 μM 24 h) was “lack of significant SOS1 degradation”. The SOS1 degradation at SOS1 (SW620 cells, 1 μM, 6 hours, immunoblot) is listed as 64%; on SOS1 (SW620 cells, 1 μM, 48 hours, immunoblot), 92%. Also, the “Time-dependent SOS1 degradation” value at SOS1 (SW620 cells, 1 μM, different time points) was “time-dependent”. Also, the “SOS1 degradation compared to SOS1 inhibitor BI3406 and siRNA of SOS1” value on SOS1 (SW620 cells, 6 hours, immunoblot) is “comparable with that by genetic knockdown”. In addition, on SOS1 (maximal degradation reported, CRC cell lines and PDOs), the “SOS1 degradation (up to)” value is “up to 92%”. Besides, the “Annexin V expression by IHC” value in the experiment on Annexin V is recorded as “increased membranous expression of Annexin V”.
